Type in all cases: cell-based
The test system of test [1] is phosphorylated Akt protein. Put plainly: Cellular PI3K / Akt pathway assay (phospho-Akt Ser473 sandwich ELISA). Conditions: Homo sapiens; MCF7 cells, ß-Heregulin (20ng/ml) stimulation, 48h incubation. The protocol: In order to study the cellular activity of the compounds according to the present invention, an Enzyme Linked Immunosorbent Assay (ELISA)-based assay has been used specific phospho-AKT. The assay is based on a Sandwich ELISA kit (PathScan™ Phospho-Akt1 (Ser473); Cell Signaling, USA; #7160). The ELISA Kit detects endogenous levels of phosphorylated Akt protein. A phospho-Akt (Ser473) antibody (Cell Signaling, USA; #9271) has been coated onto the microwells. After incubation with cell lysates, the coated antibody captures the phosphorylated Akt protein. Following extensive washing, Akt1 monoclonal antibody (Cell Signaling, USA; #2967) is added to detect the captured phospho-Akt1 protein. HRP-linked anti-mouse antibody (HRP: horseradish peroxidase; Cell Signaling, USA; #7076) is then used to recognize the bound detection antibody. HRP substrate (= 3,3',5,5'-tetramethylbenzidine (TMB); Cell Signaling, USA; #7160) is added to develop colour. The magnitude of optical density for this developed color is proportional to the quantity of phosphorylated Akt protein. MCF7 cells (ATCC HTB-22) are seeded into 96 well fate bottom plates at a density of 10000 cells/well. 24 hours after seeding, the cells are serum starved using low-serum medium (IMEM media including 0,1% charcoal treated FCS (FCS: fetal calf serum)). […] To stimulate Akt phosphorylation, ß-Heregulin (20ng/ml ß-HRG) is added in parallel to the compounds. Wells containing unstimulated control cells (no ß-Heregulin stimulation) are incubated with or without the diluted compound. Wells containing untreated control cells (no compound) are filled with medium containing 0.5% v:v DMSO and are or are not stimulated with ß-Heregulin. Cells are harvested and lysed with brief sonification in 1x cell lysis buffer (20mM Tris (pH7.5), 150 mM NaCl, 1 mM ethylene diaminetetraacetate (EDTA), 1 mM ethylene glycolbis(2-aminoethyl)-N,N,N',N'-tetraacetic acid (EGTA), 1vol% Triton X-100, 2.5mM sodium pyrophosphate, 1 mM β-glycerolphosphate, 1 mM Na3VO4, 1µg/ml leupeptin). The lysate is centrifuged for 10 min. at 4°C and the supernatant is transferred to a new tube. 100 µl of sample diluent (0.1vol% Tween-20, 0.1vol% sodium azide in phosphate buffered saline (PBS)) are added to a microcentrifuge tube and 100 µl of cell lysate are transferred into the tube and vortexed. 100 µl of each diluted cell lysate are added to the appropriate ELISA well, and incubated overnight at 4°C. The plates are washed 4 times with 1x wash buffer (1vol% tween-20, 0.33vol% thymol, in PBS). Next 100 µl of detection antibody (Akt1 (2H10) monoclonal detection antibody; Cell Signaling, USA; #2967) are added to each well and incubation continued for 1h at 37°C. The washing procedure is repeated between each step. 100µl of secondary antibody (anti-mouse IgG HRP-linked antibody; Cell Signaling, USA; #7076) are added to each well and incubated for 30 min. at 37°C. Than, 100µl of TMB substrate (0.05% 3,3',5,5' tetramethylbenzidine, 0.1 % hydrogen peroxide, complex polypeptides in a buffered solution; Cell Signaling, USA; #7160) are added to each well and incubated for 30 min. at 25°C. Finally 100 µl of STOP solution (0.05vol% α and β unsaturated carbonyl compound) are added to each well and the plate are shaked gently. The absorbance is measured at λ =450 nm (Wallac Victor2; Perkin Elmer, USA) within 30 min. after adding the STOP solution. The analysis of the data is performed using a statistical program (Excel; Microsoft, USA). Preferred compounds show an inhibitory activity towards Akt phosphorylation below 10µM.

The test system of a further test is phosphorylated GSK3. The test is described as follows: Cellular pGSK3 assay (phospho-GSK3 Ser9 sandwich ELISA). The following applies: Homo sapiens; MCF7 cells, 48h incubation, IC50 of pGSK3 inhibition. The protocol: In order to study the cellular activity of the compounds according to the present invention, an ELISA-based assay has been established for the phosphorylated protein glycogen synthetase kinase 3 (GSK3). The assay is based on a solid phase sandwich ELISA that detects endogenous levels of phosphorylated GSK3 using a phospho-GSK3 (Ser9) specific antibody (BioSource International, Inc.; Catalog #KHO0461). After incubation with cell lysates, the coated antibody captures the phosphorylated GSK3 protein. Following extensive washing, GSK3 polyclonal antibody is added to detect the captured phospho-GSK3 protein. Secondary antibody (anti-rabbit IgG-HRP) is then used to recognize the bound detection antibody. After the second incubation and washing to remove all the excess anti-rabbit IgG-HRP, a substrate solution is added, which is acted upon by the bound enzyme to produce color. The intensity of this colored product is directly proportional to the concentration of GSK-3β [pS9] present in the original specimen. MCF7 cells (ATCC HTB-22) were seeded into 96 well fate bottom plates at a density of 10000 cells/well. After 24 h 1 µl each of the compound dilutions (test compounds were dissolved as 10 mM solutions in dimethylsulfoxide (DMSO) and subsequently diluted) were added into each well of the 96 well plates and incubated for 48h at 37°C in a humidified athmosphere containing 5% CO2. Cells were harvested and lysed in cell extraction buffer (10 mM Tris, pH 7.4, 100 mM NaCl, 1 mM EDTA, 1 mM EGTA, 1 mM NaF, 20 mM Na4P2O7, 2 mM Na3VO4, 1% Triton X-100, 10vol% glycerol, 0.1vol% SDS, 0.5vol% deoxycholate, 1 mM phenylmethylsulfonylfluorid (PMSF)). The lysate were centrifuged for 10 min. at 4°C and the supernatant were transferred to a new tube. 50 µl of sample diluent (standard diluent buffer, Biosource) were added and 100 µl of cell lysate transferred into the tube and vortexed. 100 µl of each diluted cell lysate were added to the appropriate ELISA well plate and incubated for 3h at room temperature. The plates were washed 4 times with 1x wash buffer (Biosource). 50 µl of detection antibody (GSK3 (Ser9) detection antibody; BioSource) were added to each well and incubated for 30 min. at room temperature. The washing procedure was repeated between each step. 100µl of HRP-linked secondary antibody (anti-mouse IgG HRP-linked antibody) were added to each well and incubated for 30 min. at room temperature. 100µl of TMB substrate (0.05vol% 3,3',5,5' tetramethylbenzidine, 0.1vol% hydrogen peroxide, complex polypeptides in a buffered solution; Biosource) were added to each well and incubated for 30 min. at room temperature. Finally 100 µl of Stop solution (0.05vol% α and β unsaturated carbonyl compound) were added to each well and the plate were shaked gently for a few seconds. The absorbance was measured at λ = 450 nm (Wallac Victor2; Perkin Elmer, USA) within 30 min. after adding the stop solution. The analysis of the data was performed using a statistical program (Excel; Microsoft, USA) and the IC50 of pGSK3 inhibition was determined.
(ELISA stands for enzyme-linked immunosorbent assay.)

For another test, the system named is OvCAR3 cells. Put plainly: Cellular proliferation / Cytotoxicity assay (Alamar Blue / Resazurin cell viability). The following applies: Homo sapiens, OVCAR-3, 48h incubation, read-out: Anti-proliferative / Cytotoxic activity (OvCAR3 cells). The protocol:
Wells containing untreated control cells were filled with 200 µl DMEM (Dulbecco's Modified Eagle Medium) containing 0.5vol% v:v DMSO. The cells are then incubated with the substances for 48h at 37°C in a humidified atmosphere containing 5vol% CO2. To determine the viability of the cells, 20 µl of a Resazurin solution (90mg / I) are added. […] Viabilities are expressed as % values.
For orientation: Resazurin is reduced to fluorescent resorufin, in cell work by metabolically active cells.

SMILES strings stand for the structures.

For the molecule `c1ccc(-c2c(-c3ccc(CN4CCC(c5n[nH]c(-c6ccccn6)n5)CC4)cc3)nc3ccccn23)cc1` [Example 2, 3-phenyl-2-(4-{[4-(5-pyridin-2-yl-1H-1,2,4-triazol-3-yl)piperidin-1-yl]methyl}phenyl)imidazo[1,2-a]pyridine], the IC50 in test [1] was less than 1000 nM; in the test on phosphorylated GSK3, 1000 to 10000 nM; in the test with OvCAR3 cells, less than 10 µM.

Regarding `Brc1cccn2c(-c3ccccc3)c(-c3ccc(CN4CCC(c5n[nH]c(-c6ccccn6)n5)CC4)cc3)nc12` [Example 25, 8-bromo-3-phenyl-2-(4-{[4-(5-pyridin-2-yl-1,2,4-triazol-3-yl)piperidin-1-yl]methyl}phenyl)imidazo[1,2-a]pyridine], the IC50 in test [1] was less than 1000 nM; in the test on phosphorylated GSK3 it was less than 1000 nM; in the test with OvCAR3 cells, less than 10 µM.

For `c1ccc(-c2nc(C3CCN(Cc4ccc(-c5nc6ccccn6c5-c5ccncc5)cc4)CC3)n[nH]2)nc1` [Example 16, 3-pyridin-4-yl-2-(4-{[4-(5-pyridin-2-yl-1,2,4-triazol-3-yl)piperidin-1-yl]methyl}phenyl)imidazo[1,2-a]pyridine], the IC50 in test [1] was 1000 to 10000 nM; in the test with phosphorylated GSK3, 1000 to 10000 nM; with OvCAR3 cells it was less than 10 µM.

With `c1ccc(-c2c(-c3ccc(CN4CCC(c5cc(-c6ccccn6)n[nH]5)CC4)cc3)nc3ncccn23)cc1` [Example 30, 3-phenyl-2-(4-{[4-(3-pyridin-2-yl-pyrazol-5-yl)piperidin-1-yl]methyl}phenyl)imidazo[1,2-a]pyrimidine], the values for the IC50 (in test [1]; with phosphorylated GSK3; in the test on OvCAR3 cells) were 1000 to 10000 nM, less than 1000 nM and less than 10 µM, respectively.

In the case of `Cc1cccn2c(-c3ccccc3)c(-c3ccc(CN4CCC(c5n[nH]c(-c6ccccn6)n5)CC4)cc3)nc12` [Example 8, 8-methyl-3-phenyl-2-(4-{[4-(5-pyridin-2-yl-1,2,4-triazol-3-yl)piperidin-1-yl]methyl}phenyl)imidazo[1,2-a]pyridine], the IC50 in test [1] is less than 1000 nM; with phosphorylated GSK3, 1000 to 10000 nM; in the test on OvCAR3 cells, less than 10 µM.

Consider `Fc1cccc(-c2c(-c3ccc(CN4CCC(c5n[nH]c(-c6ccccn6)n5)CC4)cc3)nc3ccccn23)c1` [Example 14, 3-(3-fluorophenyl)-2-(4-{[4-(5-pyridin-2-yl-1,2,4-triazol-3-yl)piperidin-1-yl]methyl}phenyl)imidazo[1,2-a]pyridine], for which the IC50 in test [1] was less than 1000 nM; in the test on phosphorylated GSK3, 1000 to 10000 nM; in the test with OvCAR3 cells, less than 10 µM.

For `c1ccc(-c2c(-c3ccc(CN4CCC(c5n[nH]c(-c6ccccn6)n5)CC4)cc3)nc3nccnn23)cc1` [Example 3, 7-phenyl-6-(4-{[4-(5-pyridin-2-yl-1H-1,2,4-triazol-3-yl)piperidin-1-yl]methyl}phenyl)imidazo[1,2-b][1,2,4]triazine], the results for the IC50 (in test [1]; in the test with phosphorylated GSK3; in the test with OvCAR3 cells) were less than 1000 nM, less than 1000 nM and less than 10 µM, respectively.

Regarding `COc1ccn2c(-c3ccccc3)c(-c3ccc(CN4CCC(c5n[nH]c(-c6ccccn6)n5)CC4)cc3)nc2n1` [Example 24, 7-methoxy-3-phenyl-2-(4-{[4-(5-pyridin-2-yl-1,2,4-triazol-3-yl)piperidin-1-yl]methyl}phenyl)imidazo[1,2-a]pyrimidine], the IC50 in test [1] was less than 1000 nM; in the test on phosphorylated GSK3, less than 1000 nM; with OvCAR3 cells, less than 10 µM.

With `Clc1cnc2nc(-c3ccc(CN4CCC(c5n[nH]c(-c6ccccn6)n5)CC4)cc3)c(-c3ccccc3)n2c1` [Example 21, 6-chloro-3-phenyl-2-(4-{[4-(5-pyridin-2-yl-1,2,4-triazol-3-yl)piperidin-1-yl]methyl}phenyl)imidazo[1,2-a]pyrimidine], the IC50 in test [1] was less than 1000 nM; in the test on phosphorylated GSK3, 1000 to 10000 nM; with OvCAR3 cells, less than 10 µM.

Regarding `COc1ccc(-c2c(-c3ccc(CN4CCC(c5n[nH]c(-c6ccccn6)n5)CC4)cc3)nc3ccccn23)cc1` [Example 15, 3-(4-methoxyphenyl)-2-(4-{[4-(5-pyridin-2-yl-1,2,4-triazol-3-yl)piperidin-1-yl]methyl}phenyl)imidazo[1,2-a]pyridine], the IC50 is more than 10000 nM in test [1], 1000 to 10000 nM in the test with phosphorylated GSK3 and more than 10 µM in the test with OvCAR3 cells.

On to `c1ccc(-c2c(-c3ccc(CN4CCC(c5n[nH]c(-c6ccccn6)n5)CC4)cc3)nc3cnccn23)cc1` [Example 37, 3-phenyl-2-(4-{[4-(5-pyridin-2-yl-1,2,4-triazol-3-yl)piperidin-1-yl]methyl}phenyl)imidazo[1,2-a]pyrazine], for which the IC50 was less than 1000 nM in test [1], 1000 to 10000 nM in the test with phosphorylated GSK3 and less than 10 µM in the test with OvCAR3 cells.

Consider `N=C(N)c1cccn2c(-c3ccccc3)c(-c3ccc(CN4CCC(c5n[nH]c(-c6ccccn6)n5)CC4)cc3)nc12` [Example 33, 3-phenyl-2-(4-{[4-(5-pyridin-2-yl-1,2,4-triazol-3-yl)piperidin-1-yl]methyl}phenyl)imidazo[1,2-a]pyridine-8-carboximidamide], for which the IC50 was 1000 to 10000 nM in test [1], more than 10000 nM in the test with phosphorylated GSK3 and more than 10 µM in the test on OvCAR3 cells.

Values taken from EP2062893A1, “Fused imidazoles for cancer treatment” (Bayer Schering Pharma AG, priority 2007, dated 2009).
